Results as given in patent publication US9044465B2, “Use of analgesic potentiating compounds to potentiate the analgesic properties of an analgesic compound” (priority 2008, dated 2015).

Legend:
[1] = test system: patients with acute sore throat and pharyngitis; experiment: Definite Improvement Level (DIL), same study; details: single oral dose, placebo 11.1%; for patients who achieved their own Definite Improvement Level on the TSS: Throat Soreness Scale
Description: A randomized, double-blind, placebo-controlled single-dose study was performed. In order to be eligible for the study, patients were required to have a history of an acute sore throat and physical evidence of pharyngitis. A total of 99 patients who met pre-specified inclusion and exclusion criteria, including moderate to severe throat pain intensity, as measured by a score≧7 on the Throat Soreness Scale (TSS), were admitted to the study.
At this visit they were shown each baseline rating scale and asked to indicate which level represented “definite improvement” to them (Definite Improvement Level), the Diary was reviewed for completeness by the Study Nurse, and ongoing evaluation and treatment were provided, if necessary, per standard clinic procedures.
After the patient is shown his/her completed Baseline Throat Soreness Scale, the Study Nurse will point to the number which the patient marked at Baseline and instruct the patient:
“Starting at this level with your sore throat, at and below which number means definite improvement to you?”
Next, the Study Nurse will separately show the patient his/her Baseline Difficulty Swallowing Scale, Swollen Throat Scale, Difficulty Talking Scale, and each of the 10 Quality-of-Pain Scales, with the same instructions for each scale.
Analyses were performed on all 99 patients (“intent-to-treat analyses”). […] Definite Improvement Level comparisons were performed using Fisher's Exact Test. Correlations between each new rating scale and the TSS were performed using Spearman Rank Correlation.

[2] = test system: patients with acute sore throat and pharyngitis; experiment: Throat Soreness Scale (TSS), randomized double-blind placebo-controlled single-dose study; type: in vivo, human; details: single oral dose; for time from which TSS scores separated/differed from placebo: throat soreness difference at individual time points; for reduction in throat soreness (TSS) compared to placebo over 6 hours: 9 patients per group, vs placebo
Description: (§1) A total of 99 patients who met pre-specified inclusion and exclusion criteria, including moderate to severe throat pain intensity, as measured by a score≧7 on the Throat Soreness Scale (TSS), were admitted to the study.
(§2) There were 9 patients randomly assigned to each treatment group.
They were discharged home for hourly assessments up to 6 hours post-dose. Patients were allowed alternative analgesic medication at any time during the study.
(§3) The Throat Soreness Scale (TSS), Swollen Throat Scale (SwoTS), Difficulty Swallowing Scale (DSS), Difficulty Talking Scale (DTS), and other Quality-of-Pain Scales were completed at Baseline (immediately pre-treatment). Each of these measurement instruments is a 0-10 ordinal scale (see TEST PROTOCOL below).
(§4) After administration of the assigned study medication, patients completed (1) the Throat Soreness Scale, (2) the Swollen Throat Scale, (3) the Difficulty Swallowing Scale, and (4) the Improvement Assessment (IA) every 15 minutes up to 2 hours. Measurements on the Difficulty Talking Scale and the Quality-of-Pain Scales were obtained after these four assessments at 60 minutes and at 2 hours after treatment.
(§5) After these 2nd hour assessments, patients were discharged from the clinic with a Diary for entering responses on the Throat Soreness Scale, Swollen Throat Scale, Difficulty Swallowing Scale, Difficulty Talking Scale, and Improvement Assessment at 3, 4, 5, and 6 hours. After the 6 hour assessments, patients completed the Quality-of-Pain Scales.
The patient will be asked to evaluate his/her throat soreness using a 0-to-10 ordinal scale at Baseline as well as at 15, 30, 45, 60, 75, 90, 105 and 120 min and then hourly through 6 hours. The patient will be requested to swallow and instructed:
The primary endpoint variable is the Summed Difference in Throat Soreness at 6 hours, which is based on the Throat Soreness Scale. The patient will be asked to evaluate his/her throat soreness, using a 0-to-10 ordinal scale at baseline and at 15, 30, 45, 60, 75, 90, 105 minutes and 2, 3, 4, 5, and 6 hours. At each time point post-dose, a difference is calculated between the throat soreness at that time and the patient's baseline throat soreness. The time-weighted Summed Difference in Throat Soreness at each time point is calculated as the sum of the differences from baseline until that time point.

[3] = test system: patients with acute sore throat and pharyngitis; experiment: Improvement Assessment (IA), same study; type: in vivo, human; details: single oral dose; for patients who achieved at least some improvement within 30 minutes (IA): first 30 minutes, placebo 1/9; for time from which IA scores separated/differed from placebo: improvement at individual time points; for patients who achieved at least 50% improvement over 6 hours (IA): over the 6-hour treatment period, placebo 2/9; for patients who achieved at least some improvement within 1 hour (IA): placebo 4/9
From the text: as §1, §2, §4, §5
The patient will grade the improvement of his/her throat at 15, 30, 45, 60, 75, 90, 105, and 120 minutes, and at 3, 4, 5, and 6 hours post dose using a 5-category transitional scale. The patient will be instructed:
“Considering how your throat felt before you took the study medicine, circle the response that best describes how your throat is now.”
• Grading • no improvement • some improvement • 50% improvement • definite improvement • 100% improvement Data from this scale will be transcribed onto the appropriate Summary Data CRFs. Definite Improvement Level (DIL)

[4] = test system: patients with acute sore throat and pharyngitis; experiment: Difficulty Swallowing Scale (DSS), same study; type: in vivo, human; details: single oral dose, vs placebo
From the text: as §1, §2, §3, §4
as §5, with “Scales. […]” for “Scales.”

[5] = test system: patients with acute sore throat and pharyngitis; experiment: Swollen Throat Scale (SwoTS), same study; type: in vivo, human; details: single oral dose, vs placebo
From the text: as §1, §2, §3, §4
as §5, with “Scales. […]” for “Scales.”

[6] = test system: patients with acute sore throat and pharyngitis; experiment: Throat Function Index (TFI: swallowing and talking), same study; type: in vivo, human; details: single oral dose, vs placebo
From the text: as §1, §2
**Difficulty Swallowing and Difficulty Talking comprise the 20-point Throat Function Index.

[7] = test system: patients with acute sore throat and pharyngitis; experiment: Quality of Pain Index (QPI, 12 qualities of throat pain), same study; type: in vivo, human; details: single oral dose, vs placebo
From the text: as §1, §2, §4, §5
The patient will be instructed to swallow and instructed: […]

[8] = test system: patients with acute sore throat and pharyngitis; experiment: Difficulty Talking Scale (DTS), same study; type: in vivo, human; details: single oral dose, vs placebo
From the text: as §1, §2, §3, §4
as §5, with “Scales. […]” for “Scales.”

Compound	patients who achieved their own Definite Improvement Level on the TSS [1]	patients who achieved their own Definite Improvement Level on the "It hurts" Quality-of-Pain Scale [1]	patients who achieved their own Definite Improvement Level on the Difficulty Swallowing Scale [1]	time from which TSS scores separated/differed from placebo [2]	patients who achieved at least some improvement within 30 minutes (IA) [3]	time from which IA scores separated/differed from placebo [3]	patients who achieved at least 50% improvement over 6 hours (IA) [3]	patients who achieved at least some improvement within 1 hour (IA) [3]	reduction in throat soreness (TSS) compared to placebo over 6 hours [2]	reduction in difficulty swallowing (DSS) compared with placebo over 6 hours [4]	reduction in throat swelling (SwoTS) compared with placebo over 6 hours [5]	reduction in the TFI compared with placebo over 6 hours [6]	reduction in the QPI compared with placebo over 6 hours [7]	reduction in difficulty talking (DTS) compared with placebo over 6 hours [8]
Cc1ccc(-c2cc(C(F)(F)F)nn2-c2ccc(S(N)(=O)=O)cc2)cc1 [celecoxib]	77.7%	55.6%	66.7%	30 min	3/9	45 min	8/9	7/9	–	–	–	–	–	–
CC(C)Cc1ccc(C(C)C(=O)O)cc1 (centres unmarked) [ibuprofen]	44.4%	33.3%	44.4%	30 min	6/9	30 min	4/9	9/9	trend	greater reduction in difficulty swallowing compared with placebo	–	–	–	–
COc1ccc2cc([C@H](C)C(=O)O)ccc2c1 [naproxen, naproxen sodium]	22.2%	33.3%	33.3%	30 min	4/9	45 min	4/9	7/9	differentiated from placebo	–	–	–	–	–
CC(=O)Nc1ccc(O)cc1 [acetaminophen]	44.4%	55.6%	55.6%	15 min	8/9	30 min	7/9	9/9	significantly greater reduction in throat soreness compared to placebo	significant difference	significantly differentiated from placebo	significantly greater reduction in the TFI	significantly differentiated from placebo	significant
